Laboratory results: US5434150A, “Condensed 5-membered heterocyclic compounds, processes for preparing them and pharmaceutical preparations containing these compounds” (Dr. Karl Thomae GmbH, priority 1991, dated 1995)
Where a name gives a salt, the structure may show the parent alone. Read-outs that look alike come from different tables or passages of the source.

Legend:
[1] = target: Human Thrombocytes; experiment: Fibrinogen binding to human thrombocytes (fibrinogen binding test)
Protocol: 1. Fibrinogen Binding to Human Thrombocytes The blood obtained by puncturing an antecubital vein is anticoagulated with trisodium citrate (final concentration: 13 mM) and centrifuged for 10 minutes at 170× g. The supernatant platelet-rich plasma is poured onto a Sepharose 2B column (Pharmacia) and eluted with a solution of 90 mM common salt, 14 mM trisodium citrate, 5 mM glucose and 50 mM tris(hydroxymethyl)aminomethane, adjusted to pH 7.4. The gel-filtered platelets (GFP) appearing before the plasma proteins are used for the binding experiments. 50 μl of a 60 mM calcium chloride solution, 50 μl of a 0.6 mM adenosine diphosphate solution, 100 μl of substance solution or solvent and 50 μl of fibrinogen solution (containing 3 μg of ^125 fibrinogen) are added to 750 μl of GFP and incubated for 20 minutes at ambient temperature. The non-specific binding is determined in the presence of 3 mg/ml of cold fibrinogen. 900 μl of the incubated material are carefully pipetted onto 250 μl of silicon oil (AP 38: AR 20, 1:2 v/v, Wacker Chemie) in Eppendorf tubes and centrifuged for 2 minutes at 10,000× g. The aqueous supernatant and some of the oil are drawn off, the tips of the tubes are cut off together with the platelet pellet and the quantity of bound fibrinogen is determined in a gamma counter. The concentration of substance which brings about a 50% inhibition in fibrinogen binding is determined from a series of concentrations and is given as the IC50 value. | *^125 I fibrogen was replaced by […] |e.

[2] = system: platelet aggregation (platelet-rich plasma); experiment: Antithrombotic activity: inhibition of collagen-induced platelet aggregation in platelet-rich plasma (Born and Cross); assay type: cell-based, human (healthy volunteers); conditions: 50% change in optical density, human platelet-rich plasma, 10 min preincubation
Protocol: 2. Antithrombotic Activity Method The thrombocyte aggregation is measured using the Born and Cross method (J. Physiol. 170:397 (1964)) in platelet-rich plasma taken from healthy volunteers. To inhibit coagulation the blood is mixed with 3.14% sodium citrate in a ratio by volume of 1:10. Collagen-induced aggregation The pattern of the decrease in optical density of the platelet suspension is photometrically measured and recorded after the addition of aggregation-triggering substance. The rate of aggregation is concluded from the angle of inclination of the density curve. The point on the curve where there is maximum light transmittance is used to calculate the optical density. The amount of collagen used is as small as possible but sufficient to produce an irreversible reaction curve. Standard commercial collagen produced by Hormonchemie of Munich is used. Before the addition of the collagen the plasma is incubated for 10 minutes with the substance at […]. From the measurements obtained an EC50 is determined graphically, indicating a 50% change in the optical density in terms of the inhibition of aggregation.

[3] = system: mice; experiment: Tolerance after intravenous administration to mice; assay type: in vivo; conditions: 30 mg/kg intravenous, three mice
[4] = 125I fibrinogen, 50% inhibition of fibrinogen binding, gel-filtered human platelets, ADP, 20 min ambient temperature, read-out: Fibrinogen binding test IC50
[5] = *: 125I fibrinogen replaced by 3H-(3S,5S)-5-[(amidino-biphenylyl)-oxymethyl]-carboxymethyl-pyrrolidinone ligand, read-out: Fibrinogen binding test IC50 (values marked *)

Structure (SMILES)	IC50 [1, 4] [µM]	EC50 [2] [µM]	IC50 [1, 5] [µM]	deaths after intravenous administration [3]
COC(=O)CCNC(=O)c1cc2nc(-c3ccc(C(=N)N)cc3)n(C)c2cc1N(C)C(=O)OCC(C)C [3(130), 2-(4-amidino-phenyl)-6-(N-isobutyloxycarbonyl-N-methyl-amino)-5-[(2-methoxycarbonyl-ethyl)-aminocarbonyl]-1-methyl-benzimidazole]	14	0.16		
COC(=O)CCCCn1c(=O)c2nc(-c3ccc(C(=N)N)cc3)n(C)c2n(C)c1=O [3(141), 8-(4-amidino-phenyl)-3,9-dimethyl-1-(4-methoxycarbonyl-butyl)-xanthine hyd rochloride-hydroacetate]	0.14	0.08		
COC(=O)CCNC(=O)c1ccc2c(c1)nc(-c1ccc(C(=N)N)cc1)n2CCCN1CCS(=O)(=O)CC1 [5(6), 2-(4-amidino-phenyl)-1-[3-(S,S-dioxido-thiomorpholino)-propyl]-5-[(2-methoxycarbonyl-ethyl)-aminocarbonyl]-benzimidazole-hydrochloride]		18	5.5	
N=C(N)c1ccc(-c2nc3cc(C(=O)NCCC(=O)OC4CCCCC4)ccc3n2CCCCc2ccccc2)cc1 [13(3), 2-(4-amidino-phenyl)-5-[(2-cyclohexyloxycarbonyl-ethyl)-aminocarbonyl]-1-(4-phenyl-butyl)-benzimidazole dihydrochloride]		4.3	1.4	
N=C(N)c1ccc(-c2nc3cc(C(=O)NCCC(=O)OCC4CCCCC4)ccc3n2CCCCc2ccccc2)cc1 [13(6), 2-(4-amidino-phenyl)-5-[(2-cyclohexylmethyloxy-carbonyl-ethyl)-aminocarbonyl]-1-(4-phenyl-butyl)-benzimidazole dihydrochloride]		0.98	0.13	
COC(=O)CCNC(=O)c1ccc2[nH]c(-c3ccc(C(=N)N)cc3)nc2c1 [15(1), 2-(4-amidino-phenyl)-5(6)-[(2-methoxycarbonyl-ethyl)-aminocarbonyl]-benzimidazole-hydrochloride]		4.1	2.5	
Cn1c(-c2ccc(CN)cc2)nc2cc(C(=O)NCCC(=O)O)ccc21 [17(1), 2-(4-aminomethyl-phenyl)-5-[(2-carboxy-ethyl)-aminocarbonyl]-1-methyl-benzimidazole-dihydrobromide]	0.7	1.53		
COc1ccc(CCn2c(-c3ccc(C(=N)N)cc3)nc3cc(C(=O)NCCC(=O)O)ccc32)cc1OC [17(2), 2-(4-amidino-phenyl)-5-[(2-carboxy-ethyl)-aminocarbonyl]-1-[2-(3,4-dimethoxy-phenyl)-ethyl]-benzimidazole-dihydrobromide]		0.08	0.022	
N=C(N)c1ccc(-c2nc3cc(C(=O)NCCC(=O)O)ccc3n2Cc2cccnc2)cc1 [17(3), 2-(4-amidino-phenyl)-5-[(2-carboxy-ethyl)-aminocarbonyl]-1-(3-pyridylmethyl)-benzimidazole-dihydrobromide]		0.43	0.17	
CCCCCCCCCCCCCCn1c(-c2ccc(CN)cc2)nc2cc(C(=O)NCCC(=O)O)ccc21 [17(4), 2-(4-aminomethyl-phenyl)-5-[(2-carboxy-ethyl)-aminocarbonyl]-1-n-tetradecyl-benzimidazole-dihydrobromide]		> 100	1.9	
COc1ccc(CCn2c(-c3ccc(CN)cc3)nc3cc(C(=O)NCCC(=O)O)ccc32)cc1OC [17(5), 2-(4-aminomethyl-phenyl)-5-[(2-carboxy-ethyl)-aminocarbonyl]-1-[2-(3,4-dimethoxy-phenyl)-ethyl]-benzimidazole-dihydrobromide]		2.13	0.37	
CCCCCCCCCCCCCCn1c(-c2ccc(C(=N)N)cc2)nc2cc(C(=O)NCCC(=O)O)ccc21 [17(6), 2-(4-amidino-phenyl)-5-[(2-carboxy-ethyl)-aminocarbonyl]-1-n-tetradecyl-benzimidazole-dihydrobromide]		30	1.8	
N=C(N)c1ccc(-c2nc3cc(C(=O)NCCC(=O)O)ccc3n2CCCCc2ccccc2)cc1 [17(7), 2-(4-amidino-phenyl)-5-[(2-carboxy-ethyl)-aminocarbonyl]-1-(4-phenyl-butyl)-benzimidazole-dihydrobromide]		0.29	0.0054	
N=C(N)c1ccc(-c2nc3cc(C(=O)NCCC(=O)O)ccc3n2CCc2cc(Br)c(N)c(Br)c2)cc1 [17(8), 2-(4-amidino-phenyl)-1-[2-(4-amino-3,5-dibromo-phenyl)-ethyl]-5-[(2-carboxy-ethyl)-aminocarbonyl]-benzimidazole-dihydrobromide]		0.35	0.047	
N=C(N)c1ccc(-c2nc3cc(C(=O)NCCC(=O)O)ccc3n2CCC(c2ccccc2)c2ccccc2)cc1 [17(9), 2-(4-amidino-phenyl)-5-[(2-carboxy-ethyl)-aminocarbonyl]-1-(3,3-diphenyl-propyl)-benzimidazole-dihydrobromide]		1.14	0.0095	
Cn1c(-c2ccc(C(=N)N)cc2)nc2cc(C(=O)N3CCCC(C(=O)O)C3)ccc21 (stereo not shown) [17(10), 2-(4-amidino-phenyl)-5-[(3-carboxy-piperidino)-carbonyl]-1-methyl-benzimidazole-dihydrobromide]	26	27		
Cn1c(-c2ccc(C(=N)N)cc2)nc2cc(C(=O)NCCC(=O)O)cnc21 [17(13), 2-(4-amidino-phenyl)-6-[(2-carboxy-ethyl)-aminocarbonyl]-3-methyl-imidazo[4,5-b]pyridine-dihydrobromide]		0.04	0.02	
Cn1c(-c2ccc(C(=N)N)cc2)nc2cc(C(=O)NCCC(=O)O)ccc21 [Example 1(3), 2-(4-amidino-phenyl)-5-[(2-carboxy-ethyl)-aminocarbonyl]-1-methyl-benzimidazole]	0.037	0.07		no animals died
Cn1c(-c2ccc(C(=N)N)cc2)nc2cc(C(=O)NCCCC(=O)O)ccc21 [Example 1, 2-(4-Amidino-phenyl)-5-[(3-carboxy-propyl)-aminocarbonyl]-1-methyl-benzimidazole]	33	27		
COC(=O)CCNC(=O)c1ccc2c(c1)nc(-c1ccc(C(=N)N)cc1)n2CCCN1CC[S+]([O-])CC1 [Example 5, 2-(4-Amidino-phenyl)-5-[(2-methoxycarbonyl-ethyl)-aminocarbonyl]-1-[3-(S-oxido-thiomorpholino)-propyl]-benzimidazole-hydrochloride]		43	15	
COC(=O)CCNC(=O)c1ccc2c(c1)nc(-c1ccc(CN)cc1)n2CCCN [Example 6, 2-(4-Aminomethyl-phenyl)-1-(3-amino-propyl)-5-[(2-methoxycarbonyl-ethyl)-aminocarbonyl]-benzimidazole]	4	3.7		
COc1ccc(CCn2c(-c3ccc(C(=N)N)cc3)nc3cc(C(=O)NCCC(=O)OC(C)C)ccc32)cc1OC [Example 13, 2-(4-Amidino-phenyl)-1-[2-(3,4-dimethoxy-phenyl)-ethyl]-5-[(2-isopropyloxycarbonyl-ethyl)-aminocarbonyl]-benzimidazole-dihydrochloride]		5.7	1.7	
N=C(N)c1ccc(-c2nc3cc(C(=O)NCCC(=O)O)ccc3n2CCN2CCNCC2)cc1 [Example 15, 2-(4-Amidino-phenyl)-5-[(2-carboxy-ethyl)-aminocarbonyl]-1-(2-piperazino-ethyl)-benzimidazole-hydrogen acetate]	0.028	0.04		
NCCCn1c(-c2ccc(CN)cc2)nc2cc(C(=O)NCCC(=O)O)ccc21 [Example 17, 2-(4-Aminomethyl-phenyl)-1-(3-amino-propyl)-5-[(2-carboxy-ethyl)-aminocarbonyl]-benzimidazole-hydrogen acetate]	1	3.8		
